Numbers after ± are expanded uncertainties.
Experiment: xn = mol fraction of the nth substance listed
Conditions: 101 kPa, Liquid

CCCCCCCCCO [nonan-1-ol] + CCCCCCCCO
Conditions	mass density [kg/m3]	viscosity [mPa·s]
283.15 K, x2 = 0	835 ± 0.9	17.44 ± 0.48
283.15 K, x2 = 0.1001	834.6 ± 0.9	16.99 ± 0.47
283.15 K, x2 = 0.1998	834.4 ± 0.9	16.57 ± 0.46
283.15 K, x2 = 0.2999	834.1 ± 0.8	16.21 ± 0.44
283.15 K, x2 = 0.4003	833.8 ± 0.8	15.79 ± 0.43
283.15 K, x2 = 0.5001	833.5 ± 0.7	15.41 ± 0.42
283.15 K, x2 = 0.6001	833.2 ± 0.7	15.01 ± 0.41
283.15 K, x2 = 0.7	832.9 ± 0.7	14.55 ± 0.4
283.15 K, x2 = 0.8001	832.7 ± 0.6	14.21 ± 0.39
283.15 K, x2 = 0.9001	832.3 ± 0.6	13.9 ± 0.38
288.15 K, x2 = 0	831.5 ± 0.9	14.27 ± 0.4
288.15 K, x2 = 0.1001	831.3 ± 0.9	13.92 ± 0.39
288.15 K, x2 = 0.1998	831 ± 0.9	13.61 ± 0.38
288.15 K, x2 = 0.2999	830.7 ± 0.8	13.2 ± 0.37
288.15 K, x2 = 0.4003	830.4 ± 0.8	12.83 ± 0.36
288.15 K, x2 = 0.5001	830.1 ± 0.7	12.5 ± 0.35
288.15 K, x2 = 0.6001	829.8 ± 0.7	12.26 ± 0.34
288.15 K, x2 = 0.7	829.5 ± 0.7	11.97 ± 0.33
288.15 K, x2 = 0.8001	829.3 ± 0.6	11.59 ± 0.32
288.15 K, x2 = 0.9001	828.9 ± 0.6	11.33 ± 0.32
293.15 K, x2 = 0	828.1 ± 0.9	11.63 ± 0.34
293.15 K, x2 = 0.1001	827.8 ± 0.9	11.38 ± 0.33
293.15 K, x2 = 0.1998	827.6 ± 0.9	11.12 ± 0.32
293.15 K, x2 = 0.2999	827.3 ± 0.8	10.79 ± 0.31
293.15 K, x2 = 0.4003	827 ± 0.8	10.55 ± 0.3
293.15 K, x2 = 0.5001	826.7 ± 0.7	10.26 ± 0.3
293.15 K, x2 = 0.6001	826.4 ± 0.7	10.04 ± 0.29
293.15 K, x2 = 0.7	826.1 ± 0.7	9.838 ± 0.28
293.15 K, x2 = 0.8001	825.8 ± 0.6	9.525 ± 0.27
293.15 K, x2 = 0.9001	825.5 ± 0.6	9.303 ± 0.27
298.15 K, x2 = 0	824.7 ± 0.9	9.519 ± 0.28
298.15 K, x2 = 0.1001	824.4 ± 0.9	9.353 ± 0.28
298.15 K, x2 = 0.1998	824.1 ± 0.9	9.135 ± 0.27
298.15 K, x2 = 0.2997	823.8 ± 0.8	8.957 ± 0.27
298.15 K, x2 = 0.4003	823.5 ± 0.8	8.749 ± 0.26
298.15 K, x2 = 0.4996	823.2 ± 0.7	8.582 ± 0.25
298.15 K, x2 = 0.6001	822.9 ± 0.7	8.43 ± 0.25
298.15 K, x2 = 0.7	822.6 ± 0.7	8.238 ± 0.24
298.15 K, x2 = 0.8001	822.4 ± 0.6	7.976 ± 0.24
298.15 K, x2 = 0.9001	822 ± 0.6	7.786 ± 0.23
303.15 K, x2 = 0	821.3 ± 0.9	7.806 ± 0.24
303.15 K, x2 = 0.1001	821 ± 0.9	7.679 ± 0.24
303.15 K, x2 = 0.1998	820.7 ± 0.9	7.537 ± 0.23
303.15 K, x2 = 0.2997	820.4 ± 0.8	7.35 ± 0.23
303.15 K, x2 = 0.4003	820.1 ± 0.8	7.171 ± 0.22
303.15 K, x2 = 0.5001	819.8 ± 0.7	7.057 ± 0.22
303.15 K, x2 = 0.6001	819.5 ± 0.7	6.936 ± 0.21
303.15 K, x2 = 0.7	819.2 ± 0.7	6.779 ± 0.21
303.15 K, x2 = 0.8001	818.9 ± 0.6	6.634 ± 0.2
303.15 K, x2 = 0.9001	818.6 ± 0.6	6.494 ± 0.2
308.15 K, x2 = 0	817.8 ± 0.9	6.604 ± 0.21
308.15 K, x2 = 0.1001	817.5 ± 0.9	6.479 ± 0.21
308.15 K, x2 = 0.1998	817.2 ± 0.9	6.356 ± 0.2
308.15 K, x2 = 0.2999	816.9 ± 0.8	6.212 ± 0.2
308.15 K, x2 = 0.4003	816.6 ± 0.8	6.055 ± 0.19
308.15 K, x2 = 0.5001	816.3 ± 0.7	5.963 ± 0.19
308.15 K, x2 = 0.6001	816 ± 0.7	5.862 ± 0.19
308.15 K, x2 = 0.7	815.7 ± 0.7	5.743 ± 0.18
308.15 K, x2 = 0.8001	815.4 ± 0.6	5.625 ± 0.18
308.15 K, x2 = 0.9001	815 ± 0.6	5.51 ± 0.18
313.15 K, x2 = 0	814.3 ± 0.9	5.668 ± 0.19
313.15 K, x2 = 0.1001	814 ± 0.9	5.579 ± 0.18
313.15 K, x2 = 0.1998	813.7 ± 0.9	5.458 ± 0.18
313.15 K, x2 = 0.2999	813.4 ± 0.8	5.377 ± 0.18
313.15 K, x2 = 0.4003	813.1 ± 0.8	5.258 ± 0.17
313.15 K, x2 = 0.5001	812.8 ± 0.7	5.181 ± 0.17
313.15 K, x2 = 0.6001	812.5 ± 0.7	5.068 ± 0.17
313.15 K, x2 = 0.7	812.2 ± 0.7	4.957 ± 0.17
313.15 K, x2 = 0.8001	812 ± 0.6	4.872 ± 0.16
313.15 K, x2 = 0.9001	811.6 ± 0.6	4.773 ± 0.16
